The target of assay [1] is PD-1/PD-L1 (Homo sapiens, UniProt Q9NZQ7). Briefly: PD-1/PD-L1 biochemical protein-protein interaction assay (ALPHA). The conditions noted are these: 0.3 nM His tagged PD-L1, 2.5 nM biotinylated Fc-PD-1, 60 minutes at 25° C., read-out: IC50 PD-L1-PD-1 Alpha IC50-mono PD-L1-fcP-D1. The assay is classed as binding. The method, then: Biological Activity PD-1/PD-L1 & CTLA/CD80 Biochemical Protein-Protein Interaction Assay
Compounds were tested in biochemical protein-protein interaction assays to determine if they can specifically block the interaction between the extracellular domains of PD-1/PD-L1 or CTLA/CD80. Binding of the protein pairs is measured using a bead based Amplified Luminescent Proximity Homogeneous Assay (ALPHA) platform. Binding of each protein pair results in proximity of the donor and acceptor beads which leads to an increase in ALPHA signal. Disruption of the protein-protein interaction with a test compound results in a decrease in ALPHA signal. Assays are performed in 25 mM Hepes (pH 7.4), 150 mM NaCl, 3.4 mM EDTA, 0.005% Tween 20, and 0.01% BSA. Final protein concentration in the assays were 0.3 nM (His tagged PD-L1), 2.5 nM (biotinylated Fc-PD-1), 1 nM (His tagged CTLA4) and 1 nM (biotinylated CD80). After an assay reaction time of 60 minutes at 25° C., binding was measured with addition of 20 μg/mL ALPHA assay acceptor beads (anti-His coated) and […] ALPHA assay donor beads (streptavidin coated). IC50 values were calculated from the fit of the dose-response curves to a four-parameter equation. Representative data are shown below in Table 1.

Assay [2] has as its target T1, PD-1/PD-L1 interaction (Homo sapiens, UniProt Q9NZQ7).
T1 construct: expressed in transfected cells; host or cells: CHO cells (aAPC-PD-L1) co-cultured with Jurkat cells overexpressing PD-1 and an NFAT-luciferase reporter
Briefly: PD-1/PD-L1 NFAT reporter co-culture assay. The assay is classed as cell-based. The conditions noted are these: Jurkat PD-1 NFAT-luciferase cells co-cultured with aAPC-PD-L1 CHO cells, 6 hrs at 37° C.; read-out: EC50 NFAT Luciferase. The method in brief: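 Jurkat cells overexpressing PD-1 with NFAT-driven luciferase were mixed with compound in RPMI 1640/2% FBS and seeded onto overnight-plated CHO aAPC-PD-L1 cells expressing surface anti-CD3 and PD-L1. Co-culture ran 6 h at 37 °C; luminescence read with ONE-Glo; EC50 from four-parameter fit.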

Some results are limits rather than exact numbers.

T1 sequence (Q9NZQ7 19-290): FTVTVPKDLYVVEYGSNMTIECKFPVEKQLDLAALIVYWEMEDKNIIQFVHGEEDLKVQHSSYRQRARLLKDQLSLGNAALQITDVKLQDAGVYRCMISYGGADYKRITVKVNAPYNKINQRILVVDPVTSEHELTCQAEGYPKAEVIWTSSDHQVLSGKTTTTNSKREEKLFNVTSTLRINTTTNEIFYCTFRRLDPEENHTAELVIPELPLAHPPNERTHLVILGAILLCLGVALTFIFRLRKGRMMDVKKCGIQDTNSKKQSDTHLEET
Sequence of PD-1/PD-L1 (Q9NZQ7 19-238 limits assumed): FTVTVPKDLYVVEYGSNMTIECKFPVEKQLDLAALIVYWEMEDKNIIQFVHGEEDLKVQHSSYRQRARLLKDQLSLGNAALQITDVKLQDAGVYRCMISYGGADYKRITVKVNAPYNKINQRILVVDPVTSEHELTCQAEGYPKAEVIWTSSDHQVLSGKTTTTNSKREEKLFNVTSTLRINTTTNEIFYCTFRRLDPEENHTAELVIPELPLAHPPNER

What is called IC50 is the midpoint of a concentration-inhibition curve. One may read the EC50 as the concentration giving half of the maximal effect. For `COc1nc(O[C@H]2CCc3c(-c4cccc5c4CC[C@@H]5Oc4nc(OC)c(CNC[C@H](O)CC(=O)O)cc4Br)cccc32)c(Br)cc1CNC[C@H](O)CC(=O)O` [Example 3, (3R,3′R)-4,4′-((((((1S,1′S)-2,2′,3,3′-tetrahydro-1H,1′H-[4,4′-biindene]-1,1′-diyl)bis(oxy))bis(5-bromo-2-methoxypyridine-6,3-diyl))bis(methylene))bis(azanediyl))bis(3-hydroxybutanoic acid)], the IC50 in assay [1] came out at 0.2 nM. Besides, in assay [2], the EC50 came to 48 nM.

Turning to `CCNCc1cc(Cl)c(OCc2cccc(-c3cccc(COc4cc(OCc5cncc(C#N)c5)c(CNCC)cc4Cl)c3C)c2C)cc1OCc1cncc(C#N)c1` [Example 12, 5,5′-((((((2,2′-dimethyl-[1,1′-biphenyl]-3,3′-diyl)bis(methylene))bis(oxy))bis(4-chloro-6-((ethylamino)methyl)-3,1-phenylene))bis(oxy))bis(methylene))dinicotinonitrile], the half-inhibitory concentration (IC50) in assay [1] stood at 11.1 nM. Further, the EC50 in assay [2] was 653 nM.

As for `COc1nc(OCc2cccc(-c3cccc(COc4ccc(CN[C@H](CO)C(=O)O)c(OC)n4)c3C)c2C)ccc1CN[C@H](CO)C(=O)O` [Example 14], the 50% inhibitory concentration (IC50) in assay [1] was determined as 2.1 nM. Also, the EC50 in assay [2] is 13100 nM.

Regarding `Cc1c(COc2cc(OCc3cncc(C#N)c3)c(CN3CCCCC3)cc2Cl)cccc1-c1cccc(COc2cc(OCc3cncc(C#N)c3)c(CN3CCCCC3)cc2Cl)c1C` [Example 15, 5,5′-((((((2,2′-dimethyl-[1,1′-biphenyl]-3,3′-diyl)bis(methylene))bis(oxy))bis(4-chloro-6-(piperidin-1-ylmethyl)-3,1-phenylene))bis(oxy))bis(methylene))dinicotinonitrile], the IC50 in assay [1] came out at 1250 nM. Besides, the EC50 in assay [2] stood at 5710 nM.

Turning to `Cc1c(COc2ccc(CNC[C@@H](O)CC(=O)O)cc2)cccc1-c1cccc(COc2cc(OCc3cncc(C#N)c3)c(CNC[C@@H](O)CC(=O)O)cc2Cl)c1C` [Example 17, (S)-4-((4-((3′-((4-((((S)-3-carboxy-2-hydroxypropyl)amino)methyl)-2-chloro-5-((5-cyanopyridin-3-yl)methoxy)phenoxy)methyl)-2,2′-dimethyl-[1,1′-biphenyl]-3-yl)methoxy)benzyl)amino)-3-hydroxybutanoic acid], the IC50 in assay [1] was 0.3 nM. For the same compound, the 50% effective concentration (EC50) in assay [2] is 1610 nM.

As to `COc1nc(OCc2cccc(-c3cccc(COc4ccc(CNCCNC(C)=O)c(OC)n4)c3C)c2C)ccc1CNCCNC(C)=O` [Example 18, N,N′-(((((((2,2′-dimethyl-[1,1′-biphenyl]-3,3′-diyl)bis(methylene))bis(oxy))bis(2-methoxypyridine-6,3-diyl))bis(methylene))bis(azanediyl))bis(ethane-2,1-diyl))diacetamide], the half-inhibitory concentration (IC50) in assay [1] came to 16.2 nM. For the same compound, the concentration giving a half-maximal response (EC50) in assay [2] is no less than 50000 nM.

With `COc1nc(OCc2cccc(-c3cccc(COc4ccc(CNC[C@@H](O)CC(=O)O)c(OC)n4)c3C)c2C)ccc1CNC[C@@H](O)CC(=O)O` [Example 19, (3S,3′S)-4,4′-((((((2,2′-dimethyl-[1,1′-biphenyl]-3,3′-diyl)bis(methylene))bis(oxy))bis(2-methoxypyridine-6,3-diyl))bis(methylene))bis(azanediyl))bis(3-hydroxybutanoic acid)], in assay [1], the IC50 worked out at 1.1 nM. For the same compound, the concentration for a half-maximal effect (EC50) in assay [2] was determined as 5140 nM.

Consider `Cc1c(COc2cc(OCc3cncc(C#N)c3)c(CNCCO)cc2Cl)cccc1-c1cccc(-c2ccc(CNCCCC(=O)O)cc2)c1C` [Example 334, 4-(((3″-((2-chloro-5-((5-cyanopyridin-3-yl)methoxy)-4-(((2-hydroxyethyl)amino)methyl)phenoxy)methyl)-2′,2″-dimethyl-[1,1′:3′,1″-terphenyl]-4-yl)methyl)amino)butanoic acid], for which the IC50 in assay [1] was 0.143 nM.

With `N#Cc1cncc(COc2nc(OCc3cccc(-c4cccc(COc5nc(OCc6cncc(C#N)c6)c(CNC[C@@H](O)CC(=O)O)cc5Br)c4Cl)c3Cl)c(Br)cc2CNC[C@@H](O)CC(=O)O)c1` [Example 563], the IC50 in assay [1] came to 0.317 nM.

The values are drawn from US12590062B2, “PD-1/PD-L1 inhibitors” (Gilead Sciences, Inc., priority 2017, dated 2026).
